{"source": "PubChem BioAssay AID1259409", "about": "(Chemical Carcinogenesis Research Information System (CCRIS), 2018)", "origin": "cited, not measured here", "tested_on": "rodent chemically induced tumor inhibition, incidence and multiplicity", "experiment": "CCRIS tumor inhibitor studies", "details": "Dose [Inhibitor]: 0", "data": [{"smiles": "O=[N+]([O-])[O-].O=[N+]([O-])[O-].O=[N+]([O-])[O-].[Bi+3]", "values": [{"measurement": "tumour outcome (control, treated, inhibition, significance)", "setting": "Carcinogen: CISPLATIN, 15663-27-1, 50 UMOL/KG/D 3 D/WK FOR 8 WK ADMINISTERED 24 HR PRIOR TO EACH CARCINOGEN DOSE (STUDY DURATION: 24 WK), Route [Inhibitor]: SUBCUTANEOUS, Species: MOUSE, Strain/Sex: STRAIN-A/FEMALE, Target Tissue: Type of Lesion: LUNG: TUMOR, Dose [Carcinogen]: 2 UMOL/KG/D 3 D/WK FOR 8 WK, Promoter: NONE USED", "result": "100%, 54%, 46%, p<0.01"}, {"measurement": "tumour outcome (control, treated, inhibition, significance)", "setting": "Carcinogen: MELPHALAN, 148-82-3, 50 UMOL/KG/D 3 D/WK FOR 8 WK ADMINISTERED 24 HR PRIOR TO EACH CARCINOGEN DOSE (STUDY DURATION: 24 WK), Route [Inhibitor]: SUBCUTANEOUS, Species: MOUSE, Strain/Sex: STRAIN-A/FEMALE, Target Tissue: Type of Lesion: LUNG: TUMOR, Dose [Carcinogen]: 4 UMOL/KG/D 3 D/WK FOR 8 WK, Promoter: NONE USED", "result": "100%, 100%, 0%, not significant"}]}, {"smiles": "S=C=Nc1c2ccccc2c2ccc3cccc4ccc1c2c43", "values": [{"measurement": "outcome", "setting": "Carcinogen: BENZO[A]PYRENE, 50-32-8, 5 UMOL IN ACETONE 4 HR PRIOR TO CARCINOGEN DOSE (STUDY DURATION: 20 WK), Route [Inhibitor]: DERMAL, Species: MOUSE, Strain/Sex: STRAIN-A/FEMALE, Target Tissue: Type of Lesion: SKIN: TUMOR, Dose [Carcinogen]: 0.1 UMOL IN ACETONE ONCE, Promoter: 12-O-TETRADECANOYLPHORBOL-13-ACETATE, 16561-29-8", "result": "85%, 60%, 18%, not significant at 15 wk; 95%, 90%, 5%, not significant at 20 wk"}]}, {"smiles": "C=C[C@H](OC(C)=O)c1ccc(OC(C)=O)cc1", "values": [{"measurement": "tumour outcome (control, treated, inhibition, significance)", "setting": "Carcinogen: 4-NITROQUINOLINE-1-OXIDE, 56-57-5, 100 PPM IN DIET FOR 10 WK BEGINNING 1 WK PRIOR TO CARCINOGEN TREATMENT (STUDY DURATION: 32 WK), Route [Inhibitor]: ORAL, Species: RAT, Strain/Sex: F344/MALE, Target Tissue: Type of Lesion: TONGUE: PAPILLOMA OR CARCINOMA, Dose [Carcinogen]: 20 PPM IN DRINKING WATER FOR 8 WK, Promoter: NONE USED", "result": "14/24 (58%), 0/20 (0%), 100%, p<0.001"}, {"measurement": "tumour outcome (control, treated, inhibition, significance)", "setting": "Carcinogen: 4-NITROQUINOLINE-1-OXIDE, 56-57-5, 100 PPM IN DIET FOR 22 WK BEGINNING 1 WK POST CARCINOGEN TREATMENT (STUDY DURATION: 32 WK), Route [Inhibitor]: ORAL, Species: RAT, Strain/Sex: F344/MALE, Target Tissue: Type of Lesion: TONGUE: PAPILLOMA OR CARCINOMA, Dose [Carcinogen]: 20 PPM IN DRINKING WATER FOR 8 WK, Promoter: NONE USED", "result": "14/24 (58%), 0/20 (0%), 100%, p<0.001"}, {"measurement": "tumour outcome (control, treated, inhibition, significance)", "setting": "Carcinogen: 4-NITROQUINOLINE-1-OXIDE, 56-57-5, 500 PPM IN DIET FOR 10 WK BEGINNING 1 WK PRIOR TO CARCINOGEN TREATMENT (STUDY DURATION: 32 WK), Route [Inhibitor]: ORAL, Species: RAT, Strain/Sex: F344/MALE, Target Tissue: Type of Lesion: TONGUE: PAPILLOMA OR CARCINOMA, Dose [Carcinogen]: 20 PPM IN DRINKING WATER FOR 8 WK, Promoter: NONE USED", "result": "14/24 (58%), 2/23 (9%), 84%, p<0.001"}, {"measurement": "tumour outcome (control, treated, inhibition, significance)", "setting": "Carcinogen: 4-NITROQUINOLINE-1-OXIDE, 56-57-5, 500 PPM IN DIET FOR 22 WK BEGINNING 1 WK POST CARCINOGEN TREATMENT (STUDY DURATION: 32 WK), Route [Inhibitor]: ORAL, Species: RAT, Strain/Sex: F344/MALE, Target Tissue: Type of Lesion: TONGUE: PAPILLOMA OR CARCINOMA, Dose [Carcinogen]: 20 PPM IN DRINKING WATER FOR 8 WK, Promoter: NONE USED", "result": "14/24 (58%), 0/23 (0%), 100%, p<0.001"}, {"measurement": "tumour outcome (control, treated, inhibition, significance)", "setting": "Carcinogen: AZOXYMETHANE, 25843-45-2, 0.01% IN DIET FOR 4 WK BEGINNING 1 WK PRIOR TO CARCINOGEN TREATMENT (STUDY DURATION: 38 WK), Route [Inhibitor]: ORAL, Species: RAT, Strain/Sex: F344/MALE, Target Tissue: Type of Lesion: COLON: ADENOCARCINOMA, Dose [Carcinogen]: 15 MG/KG BW 1/WK FOR 3 WK, Promoter: NONE", "result": "70%, 33%, 53%, p<0.03"}, {"measurement": "tumour outcome (control, treated, inhibition, significance)", "setting": "Carcinogen: AZOXYMETHANE, 25843-45-2, 0.01% IN DIET FOR 34 WK BEGINNING 1 WK POST LAST CARCINOGEN DOSE (STUDY DURATION: 38 WK), Route [Inhibitor]: ORAL, Species: RAT, Strain/Sex: F344/MALE, Target Tissue: Type of Lesion: COLON: ADENOCARCINOMA, Dose [Carcinogen]: 15 MG/KG BW 1/WK FOR 3 WK, Promoter: NONE", "result": "70%, 38%, 46%, not significant"}, {"measurement": "tumour outcome (control, treated, inhibition, significance)", "setting": "Carcinogen: AZOXYMETHANE, 25843-45-2, 0.02% IN DIET FOR 4 WK BEGINNING 1 WK PRIOR TO CARCINOGEN TREATMENT (STUDY DURATION: 38 WK), Route [Inhibitor]: ORAL, Species: RAT, Strain/Sex: F344/MALE, Target Tissue: Type of Lesion: COLON: ADENOCARCINOMA, Dose [Carcinogen]: 15 MG/KG BW 1/WK FOR 3 WK, Promoter: NONE", "result": "70%, 17%, 76%, p<0.001"}, {"measurement": "tumour outcome (control, treated, inhibition, significance)", "setting": "Carcinogen: AZOXYMETHANE, 25843-45-2, 0.02% IN DIET FOR 34 WK BEGINNING 1 WK POST LAST CARCINOGEN DOSE (STUDY DURATION: 38 WK), Route [Inhibitor]: ORAL, Species: RAT, Strain/Sex: F344/MALE, Target Tissue: Type of Lesion: COLON: ADENOCARCINOMA, Dose [Carcinogen]: 15 MG/KG BW 1/WK FOR 3 WK, Promoter: NONE", "result": "70%, 6%, 91%, p<0.00003"}, {"measurement": "tumour outcome (control, treated, inhibition, significance)", "setting": "Carcinogen: AZOXYMETHANE, 25843-45-2, 100 PPM IN DIET FOR 4 WK BEGINNING 1 WK PRIOR TO CARCINOGEN TREATMENT (STUDY DURATION: 38 WK), Route [Inhibitor]: ORAL, Species: RAT, Strain/Sex: F344/MALE, Target Tissue: Type of Lesion: LARGE INTESTINE: TUMOR, Dose [Carcinogen]: 15 MG/KG BW 1/WK FOR 3 WK, Promoter: NONE USED", "result": "12/17 (71%), 7/18 (39%), 45%, not significant"}, {"measurement": "tumour outcome (control, treated, inhibition, significance)", "setting": "Carcinogen: AZOXYMETHANE, 25843-45-2, 100 PPM IN DIET FOR 4 WK BEGINNING 1 WK PRIOR TO CARCINOGEN TREATMENT (STUDY DURATION: 38 WK), Route [Inhibitor]: ORAL, Species: RAT, Strain/Sex: F344/MALE, Target Tissue: Type of Lesion: SMALL INTESTINE: TUMOR, Dose [Carcinogen]: 15 MG/KG BW 1/WK FOR 3 WK, Promoter: NONE USED", "result": "5/17 (29%), 3/18 (17%), 41%, not significant"}, {"measurement": "tumour outcome (control, treated, inhibition, significance)", "setting": "Carcinogen: AZOXYMETHANE, 25843-45-2, 100 PPM IN DIET FOR 34 WK BEGINNING 1 WK POST CARCINOGEN TREATMENT (STUDY DURATION: 38 WK), Route [Inhibitor]: ORAL, Species: RAT, Strain/Sex: F344/MALE, Target Tissue: Type of Lesion: LARGE INTESTINE: TUMOR, Dose [Carcinogen]: 15 MG/KG BW 1/WK FOR 3 WK, Promoter: NONE USED", "result": "12/17 (71%), 9/18 (50%), 30%, not significant"}, {"measurement": "tumour outcome (control, treated, inhibition, significance)", "setting": "Carcinogen: AZOXYMETHANE, 25843-45-2, 100 PPM IN DIET FOR 34 WK BEGINNING 1 WK POST CARCINOGEN TREATMENT (STUDY DURATION: 38 WK), Route [Inhibitor]: ORAL, Species: RAT, Strain/Sex: F344/MALE, Target Tissue: Type of Lesion: SMALL INTESTINE: TUMOR, Dose [Carcinogen]: 15 MG/KG BW 1/WK FOR 3 WK, Promoter: NONE USED", "result": "5/17 (29%), 4/18 (22%), 24%, not significant"}, {"measurement": "tumour outcome (control, treated, inhibition, significance)", "setting": "Carcinogen: AZOXYMETHANE, 25843-45-2, 500 PPM IN DIET FOR 4 WK BEGINNING 1 WK PRIOR TO CARCINOGEN TREATMENT (STUDY DURATION: 38 WK), Route [Inhibitor]: ORAL, Species: RAT, Strain/Sex: F344/MALE, Target Tissue: Type of Lesion: LARGE INTESTINE: TUMOR, Dose [Carcinogen]: 15 MG/KG BW 1/WK FOR 3 WK, Promoter: NONE USED", "result": "12/17 (71%), 8/19 (42%), 41%, not significant"}, {"measurement": "tumour outcome (control, treated, inhibition, significance)", "setting": "Carcinogen: AZOXYMETHANE, 25843-45-2, 500 PPM IN DIET FOR 4 WK BEGINNING 1 WK PRIOR TO CARCINOGEN TREATMENT (STUDY DURATION: 38 WK), Route [Inhibitor]: ORAL, Species: RAT, Strain/Sex: F344/MALE, Target Tissue: Type of Lesion: SMALL INTESTINE: TUMOR, Dose [Carcinogen]: 15 MG/KG BW 1/WK FOR 3 WK, Promoter: NONE USED", "result": "5/17 (29%), 5/19 (26%), 10%, not significant"}, {"measurement": "tumour outcome (control, treated, inhibition, significance)", "setting": "Carcinogen: AZOXYMETHANE, 25843-45-2, 500 PPM IN DIET FOR 34 WK BEGINNING 1 WK POST CARCINOGEN TREATMENT (STUDY DURATION: 38 WK), Route [Inhibitor]: ORAL, Species: RAT, Strain/Sex: F344/MALE, Target Tissue: Type of Lesion: LARGE INTESTINE: TUMOR, Dose [Carcinogen]: 15 MG/KG BW 1/WK FOR 3 WK, Promoter: NONE USED", "result": "12/17 (71%), 4/20 (20%), 72%, p=0.002"}, {"measurement": "tumour outcome (control, treated, inhibition, significance)", "setting": "Carcinogen: AZOXYMETHANE, 25843-45-2, 500 PPM IN DIET FOR 34 WK BEGINNING 1 WK POST CARCINOGEN TREATMENT (STUDY DURATION: 38 WK), Route [Inhibitor]: ORAL, Species: RAT, Strain/Sex: F344/MALE, Target Tissue: Type of Lesion: SMALL INTESTINE: TUMOR, Dose [Carcinogen]: 15 MG/KG BW 1/WK FOR 3 WK, Promoter: NONE USED", "result": "5/17 (29%), 2/20 (10%), 66%, not significant"}]}]}
